The test system of series [1] is HeLa/KB (CCL17) cells. The series is described as follows: XTT cytotoxicity (proliferation) test, HeLa/KB. The format is cell-based, human. The following applies: for anti-proliferative effect (summary in words of Table 1): 3.16 μg/mL, over cell lines HeLa/KB, SK-OV-3, MCF-7, L1210; for percentage inhibition KB/HeLa: concentration 3.16 μg/mL, 45 h incubation. From the text:
(§1) The substances D-70260, D-70744, D-80815, D-80816 and D-80819 (Examples C2.3, D4, F2, F3 and F4) were investigated in a proliferation test (Scudiero, et al., Cancer Res., 48: 4827-33, 1987) using established tumor cell lines and their anti-proliferative activity was investigated. The test used determines the mitochondrial dehydrogenase activity and enables the cell vitality and, indirectly, the cell count to be determined. The cell lines used are the human cell lines HeLa/KB (CCL17), SK-OV-3 (HTB77), MCF-7 (HTB22) and the murine leukemia cell line L1210 (CCL219). These are very well characterized and established cell lines, which were obtained from ATCC and cultured.
(§2) XTT Test for Cellular Dehydrogenase Activity
(§3) The adherent, growing, tumor cell lines HeLa/KB, SK-OV-3, MCF-7, L1210 and RKO were cultured under standard conditions in an incubator with gas inlet at 37° C., 5% carbon dioxide and 95% relative humidity. On day 1 of the experiment, the cells were detached with trypsin/EDTA and palletized by centrifuging. Subsequently, the cell pellet is re-suspended in the respective culture medium in the appropriate cell count and transferred into a 96-well microtiter plate. The plates are then cultured overnight in the incubator with gas inlet. The test substances are used as a 10 mM stock solution in DMSO and diluted on the second day of the experiment with culture medium to the appropriate concentrations. The substances in the culture medium are then added to the cells and incubated for 45 hours in the incubator with gas inlet. The cells, which were not treated with test substances, were used as controls. For the XTT-Assay, 1 mg/mL of XTT (sodium 3′-[1-(phenylaminocarbonyl)-3,4-tetrazolium]-bis(4-methoxy-6-nitro) benzenesulfonic acid) in RPMI-1640 medium was dissolved without phenol red. Additionally, a 0.383 mg/mL PMS (N-methyl dibenzopyrazine methyl sulfate) solution in phosphate buffer cell solution (PBS) was prepared. On the fourth day of the experiment, 75 μL/well of XTT-PMS mixture was pipetted onto the cell plates, which had meanwhile been incubated for 45 hours with the test substances. For this purposes, the XTT solution is mixed with the PMS solution in a ratio of 50:1 (v: v) shortly before use. Subsequently the cell plates are incubated in the incubator with gas inlet for a further three hours and the optical density (OD490nm) is determined in a photometer.
(§4) The percentage inhibition relative to the control is calculated by means of the OD490nm, which has been determined, and the activity is plotted against the log of a concentration. The IC50 is calculated from the concentration-activity curve by means of a regression analysis using the Graphpad program.

The subject of series [2] is SK-OV-3 (HTB77) cells. Briefly: XTT cytotoxicity (proliferation) test, SK-OV-3. The format is cell-based. The following applies: Homo sapiens, concentration 3.16 μg/mL, 45 h incubation, read-out: percentage inhibition SK-OV-3.
Source text: as §1, §2, §3, §4
(In general: Formazan colour is commonly taken as a measure of viable cells.)

Series [3] has as its system MCF-7 (HTB22) cells. The series is described as follows: XTT cytotoxicity (proliferation) test, MCF-7. It is filed as cell-based. Conditions: Homo sapiens, MCF7, concentration 3.16 μg/mL, 45 h incubation, read-out: percentage inhibition MCF-7.
Source text: as §1, §2, §3, §4

Series [4] deals with murine leukemia cell line L1210 (CCL219). The series is described as follows: XTT cytotoxicity (proliferation) test, L1210. Conditions: Mus musculus, concentration 3.16 μg/mL, 45 h incubation, read-out: percentage inhibition L1210. The format is cell-based.
Source text: as §1, §2, §3, §4

Series [5] in a line: General toxicity LD50 (i.p.). The following applies: nude, mouse, in vivo, ip, read-out: LD 50 (general toxicity). On the procedure:
(§5) In order to determine the availability and effectiveness in the animal model (nude mouse), the cell lines HeLa/KB, MCF-7 and L1210 were cultured in hollow fibers, which are implanted i.p. or s.c. (Hollingshead et al., Life Sciences 57, 131-41, 1995). The test substance D-80816 is administered four times […]. in a dose of 100 mg/kg. At the end of the therapy on day 5, the fibers are explanted and the cell vitality of the tumor cells obtained is determined by means of the XTT assay. For D-80816, there is a maximum inhibition of 100% for all the cell lines and implantation cites and a general toxicity of LD50>1000 mg/kg (i.p.).

The subject of series [6] is L1210 cells in hollow fibers. The series is described as follows: Hollow fiber model in vivo (nude mouse), L1210. The following applies: dose 4 × 100 mg/kg i.p., explanted day 5. More on the design: species or system murine. On the procedure:
as §5
(§6) Determination of the Anti-Proliferative Activity in the Hollow Fiber Model in vivo
(§7) The tumor cells lines HeLa/KB, MCF-7 and L1210 are added to polyvinylidene fluoride hollow fibers (5×10^6 cells/mL) and transplanted into the physiological compartments of the nude mouse (intraperitoneally, i.p., or subcutaneously, s.c.). A total of six hollow fibers (3 i.p. and 3 s.c.) with the respective tumor cell lines is transplanted into each experimental animal. […] The proportion of metabolism-active, vital cells is determined for each hollow fiber by means of the XTT assay (see above). From this, the anti-tumor activity of the test substance is determined as the percent inhibition relative to the control.

Series [7] relates to RKOp27 cells (RKO colon carcinoma line with inducible p27Kip1). Briefly: Cell cycle analysis in the RKOp27 model (XTT readout). The format is cell-based, human. From the text:
The RKO is a human, colon carcinoma line, in which the cell cycle inhibitor p27^KiPI is induced to express by means of the Ecdyson expression system and leads to a cell cycle arrest specifically in GI (FIG. 2). A substance with non-specific activity inhibits the proliferation independently of whether the RKO cell in GI is arrested or not. On the other hand, cell cycle-specific substances, such as tubulin inhibitors, are cytotoxic only when the cells are not arrested and the cells pass through the cycle. […] Therefore, a defined, molecular, activity mechanism of D-80816 and its derivatives must be assumed. [drawing] [drawing]
Cell Cycle Analysis by Means of the RKOp27 Model
The assay is carried out in 96-well plates. The growth of the cells is arrested completely by the expression of p27^kiP1, which can be induced. […] By comparing the effectiveness of induced and not-induced cells, conclusions can be drawn concerning the mechanism of action (cell cycle specificity) of the therapeutic agents. Cells, which have […], were disseminated in an approximately 4 times higher cell count than uninduced cells, since there no longer is a division during the assay (2×10^4 cells/well induced, about 0.6×10^4 cells/well not induced). The controls are untreated cells (+/−induction). The induction is carried out with 3 μM of muristerone A. The cells are exposed on the first day (+/−muristerone A) and incubated for 24 hours at 37° C. The test substance is added on the second day (control DMSO) and the incubation is continued for a further 48 hours at 37° C., before the standard XTT assay is carried out (see above).

For series [8], the system named is HeLa/KB cells in hollow fibers. Briefly: Hollow fiber model in vivo (nude mouse), HeLa/KB. Set-up: species or system human. On the procedure: as §5, §6
The tumor cells lines HeLa/KB, MCF-7 and L1210 are added to polyvinylidene fluoride hollow fibers (5×10^6 cells/mL) and transplanted into the physiological compartments of the nude mouse (intraperitoneally, i.p., or subcutaneously, s.c.). A total of six hollow fibers (3 i.p. and 3 s.c.) with the respective tumor cell lines is transplanted into each experimental animal. One group of six animals is treated with the test substance (i.p. once daily for a total of 4 days) (ok?). The animals, which have been treated only with the solvent tylose, acted as control. The hollow fibers are explanted one day after the last application of substance. The proportion of metabolism-active, vital cells is determined for each hollow fiber by means of the XTT assay (see above). From this, the anti-tumor activity of the test substance is determined as the percent inhibition relative to the control.

The subject of series [9] is MCF-7 cells in hollow fibers. Briefly: Hollow fiber model in vivo (nude mouse), MCF-7. More on the design: species or system human. The following applies: dose 4 × 100 mg/kg i.p., explanted day 5. On the procedure: as §5, §6, §7

Consider `COc1ccc2c(c1)cc1c(-c3ccc(Cl)cc3)nn(-c3ccccc3)c(=O)n12`, for which the melting point (in general, the temperature of the solid-liquid transition) was 155 to 158 °C.

`COc1ccc2c(c1)cc1c(C)noc(=O)n12` [Example C2.1, 3-methyl-1,2,5-oxadiazino[4,5-α](5-methoxyindole)-6-one] displayed a melting point of 217 to 220 °C.

Take `CCc1noc(=O)n2c1cc1cc(OC)ccc12` [Example C2.2, 3-ethyl-1,2,5-oxadiazino[4,5-α](5-methoxyindole)-6-one]: the melting point was in the range of 208 to 212 °C.

Molecule `COc1ccc2c(c1)cc1c(-c3ccccc3)noc(=O)n12` [Example C2.3, 3-phenyl-1,2,5-oxadiazino[4,5α](5-methoxyindole)-6-one] returned a melting point of 198 to 200 °C. Also, in series [1], the “anti-proliferative effect (summary in words of Table 1)” value was “very potent anti-proliferative effect” and the “percentage inhibition KB/HeLa” value is 90.7%. Also, the inhibition – broadly, the share of the control response that was lost under treatment – at 3.16 µg/mL in series [2] is 68.9%. In series [3], the inhibition at 3.16 µg/mL is 4.1%. Besides, in series [4], the inhibition at 3.16 µg/mL is 91.3%.

As to `COc1ccccc1-c1noc(=O)n2c1cc1ccccc12` [Example D1, 3-(2-methoxyphenyl)-1,2,5-oxadiazino[4,5α]indole-6-one], the melting point lay within 160 to 162 °C.

The molecule `COc1cccc(-c2noc(=O)n3c2cc2ccccc23)c1` [Example D2, 3-(3-methoxyphenyl)-1,2,5-oxadiazino[4,5α]indole-6-one] came in with a melting point of 129 to 130 °C.

In the case of `COc1cccc(-c2noc(=O)n3c2cc2cc(OC)ccc23)c1` [Example D3, 3-(3-methoxyphenyl)-1,2,5-oxadiazino[4,5α](5-methoxyindole)-6-one], the melting point was 171 to 173 °C.

`COc1ccc2c(c1)cc1c(-c3ccc(Cl)cc3)noc(=O)n12` [Example D4, 3-(4-chlorophenyl)-1,2,5-oxadiazino[4,5α](5-methoxyindole)-6-one] came in with a melting point of 227 to 230 °C. For the same molecule, in [1], the “anti-proliferative effect (summary in words of Table 1)” value was “very potent anti-proliferative effect” and the “percentage inhibition KB/HeLa” value came to 74.6%. In addition, in [2], the inhibition at 3.16 µg/mL came out at 55.2%. In addition, in [3], the inhibition at 3.16 µg/mL came out at 1.9%. The inhibition at 3.16 µg/mL in series [4] was found to be 77.1%.

In turn, `COc1ccc2c(c1)cc1n2C(=O)C(c2ccccc2)=C1c1ccc(Cl)cc1` [Example F1, 1-(4-chlorophenyl)-6-methoxy-2-phenyl-3a-aza-cyclopenta[a]indene-3-one] gave a melting point of 152 to 155 °C.

`COc1cccc(C2=C(c3ccccc3)C(=O)n3c2cc2cc(OC)ccc23)c1` [Example F2, 6-methoxy-1-(3-methoxyphenyl)-2-phenyl-3a-aza-cyclopenta[a]indene-3-one] gave a melting point of 111 to 113 °C. Also, in [1], the “anti-proliferative effect (summary in words of Table 1)” value is “do not show a significant effect” and the “percentage inhibition KB/HeLa” value was 1.7%. Further, the inhibition at 3.16 µg/mL in series [2] came out at 0%. The inhibition at 3.16 µg/mL in [3] is 8.1%. Also, the inhibition at 3.16 µg/mL in [4] worked out at 0%.

With `COc1cccc(C2=C(c3cccc(OC)c3)c3cc4cc(OC)ccc4n3C2=O)c1` [Example F3, 6-methoxy-1,2-bis-(3-methoxyphenyl)-3a-aza-cyclopenta[a]indene-3-one], in series [1], the “anti-proliferative effect (summary in words of Table 1)” value is given as “very potent anti-proliferative effect” and the “percentage inhibition KB/HeLa” value came to 91.7%. For the same molecule, in [5], the LD50 is > 1000 mg/kg and the LD50 at 5 days is > 100 mg/kg. Moreover, the “Proliferation Inhibition in hollow Fibers, L1210 (i.p.)” value in series [6] (fibers implanted i.p.) came out at 100%. Further, the “Proliferation Inhibition in hollow Fibers, L1210 (s.c.)” value in [6] (fibers implanted s.c.) came to 100%. In addition, the “anti-proliferative effect in cells arrested in G1” value in series [7] (RKOp27 cells induced with 3 μM muristerone A (p27 expression, G1 arrest), 48 h, XTT) is recorded as “cannot be measured”. In addition, in [7] (RKOp27 cells not induced, 48 h, XTT), the “anti-proliferative effect in cells not induced” value is “concentration-dependent anti-proliferative effect”. For the same molecule, the cell cycle-specific activity entry in series [7] (comparison of induced (G1-arrested) and not induced RKOp27 cells) is on record as “cell cycle-specific activity”. Further, the “maximum inhibition in hollow fiber model” value in series [8] (all the cell lines (HeLa/KB, MCF-7, L1210) and implantation sites (i.p., s.c.), 4 × 100 mg/kg) was 100%. For the same molecule, in series [8] (fibers implanted i.p., dose 4 × 100 mg/kg i.p., explanted day 5), the “Proliferation Inhibition in hollow Fibers, KB (i.p.)” value is recorded as 100%. In series [8] (fibers implanted s.c., dose 4 × 100 mg/kg i.p., explanted day 5), the “Proliferation Inhibition in hollow Fibers, KB (s.c.)” value was found to be 100%. Further, in [2], the inhibition at 3.16 µg/mL came out at 66.1%. Moreover, the inhibition at 3.16 µg/mL in series [3] was determined as 18.2%. The “Proliferation Inhibition in hollow Fibers, MCF7 (i.p.)” value in [9] (fibers implanted i.p.) is 100%. Moreover, the “Proliferation Inhibition in hollow Fibers, MCF7 (s.c.)” value in series [9] (fibers implanted s.c.) was determined as 100%. In series [4], the inhibition at 3.16 µg/mL is 94.7%.

Regarding `COc1ccc(C2=C(c3ccc(F)cc3)C(=O)n3c2cc2cc(OC)ccc23)cc1` [Example F4, 2-(4-florophenyl)-6-methoxy-1-(4-methoxyphenyl)-3a-aza-cyclopenta[a]indene-3-one], the melting point lay within 157 to 160 °C. In [1], the “anti-proliferative effect (summary in words of Table 1)” value is on record as “do not show a significant effect” and the “percentage inhibition KB/HeLa” value is recorded as 0%. Moreover, the inhibition at 3.16 µg/mL in series [2] was determined as 6.6%. Further, the inhibition at 3.16 µg/mL in [3] is 0%. Besides, the inhibition at 3.16 µg/mL in [4] turned out to be 21.8%.
